Data taken from publication PMC8864869, “A short peptide derived from pigment epithelial-derived factor exhibits an angioinhibitory effect” (BMC Ophthalmology, 2022).
Where no end group is shown, it is not given here.

Experiments:
[1] = cited from earlier work; for anti-angiogenic and antitumor activities of human PEDF: previous studies
Excerpt: Pigment epithelial-derived factor (PEDF) was initially identified in the culture supernatant of human fetal retinal pigment epithelial cells, with the ability to promote neuronal differentiation of retinoblastoma Y79 cells. […] Presently, full-length PEDF is considered to be less suitable as an anti-angiogenic agent than PEDF-derived active fragments because of several issues, including antigenicity, s ... || Identification of angioinhibitory peptides derived from PEDF may be a promising strategy for improving the treatment of angiogenesis-related diseases. […] Here, we found for the first time that the 7-mer peptide (D64-S70), representing a minimal region within PEDF, reproduced the anti-VEGF effect, comparab ...

RPMI8226 cells [2] = experiment: Annexin V-FITC/PI double-staining apoptosis assay in RPMI8226 cells; type: cell-based, human
Method: (§1) Cell apoptosis was examined using a TACS annexin V-FITC kit according to the manufacturer’s instructions for in situ staining. The cell numbers were monitored by counterstaining with Hoechst 33342. Afterward, apoptosis was examined and photographed by a Zeiss epifluorescence microscope (× 100, 10 fields/sample). Images were recorded on Zeiss software.
Fig. 2 The 34-mer and 7-mer induce apoptosis of RPMI8226 cells. a Fluorescence microscopy of annexin V-FITC/PI double staining. Treatment of RPMI8226 cells was as described in Fig. 1. Apoptosis was determined by annexin V-FITC staining (green dots) and double stained with propidium iodide (red dots). A representative of three independent experiments is shown. b The percentage of apoptotic cells was quantified by dividing the number of annexin V-positive cells by the total number of cells counted by phase-contrast light microscopy. Control peptide indicates cells were treated with the 5-mer. Histograms show means ± SD. ^aP < 0.005 versus peptide solvent-treated cells. ^bP < 0.0002 versus VEGF-treated cells. ^cP < 0.001 versus 34-mer-treated cells
Fig. 3 The 7-mer induces JNK signaling to trigger RPMI8226 cell apoptosis. 3 × 10^5 cells were serum starved for 24 h and then exposed to 10 ng/ml VEGF and 25 μM 7-mer for the indicated time periods. a Western blotting was performed to detect the active phosphorylated forms of JNK (p-JNK) and p38 MAPK (p-p38), shown in the upper panels. Antibodies were then stripped and the blots were re-incubated with anti-JNK and anti-p38 MAPK antibodies (lower panels), respectively, to detect the levels of total JNK and p38 MAPK. b Densitometric analyses from three independent experiments are shown. c Cell were pretreated with 10 μM SP600125 or SB203580 for 10 min and then treated as described above for 24 h and apoptosis was quantified using the annexin V-FITC apoptosis detection kit. *P < 0.0001 versus 7-mer-treated cells

RPMI8226 cells [3] = type: cell-based, human; settings: for MTT value, VEGF-induced RPMI8226 cell proliferation: 10 ng/ml VEGF + 25 μM peptide, serum-free medium, solvent-treated/untreated cells set as 100%, three independent experiments
Method: Human multiple myeloma cells, RPMI8226 were purchased from Bioresource Collection and Research Center (Hsinchu, Taiwan). Cells were cultivated in RPMI1640 medium supplemented with 10% FBS, 50 μg/ml penicillin, 50 μg/ml streptomycin, and 2 mM L-glutamine at 37 °C in a 5% CO2 atmosphere. Cell viability was determined by an MTT assay. […] MTT stock solution added to medium alone was included as a negative control. Aliquots (450 μl) from each sample were transferred to a new well of a 48-well culture plate, 100 μl DMSO added with thorough mixing, and allowed to react at 37 °C for 20 min before reading the absorbance at 570 nm.

HUVECs [4] = experiment: Annexin V-FITC apoptosis assay in HUVECs; type: cell-based, human; settings: 0.5% FBS, 16 h
Method: (§2) Cells were grown in Medium 200 with LSGS (supplement contains 1.9% fetal bovine serum, 3 ng/ml bFGF, 10 μg/ml heparin, 1 μg/ml hydrocortisone, and 10 ng/ml EGF). Culture plates were coated with 2% gelatin. Cells (passages 4–8) were cultured at 37 °C in a humidified atmosphere of 5% CO2. For peptide treatment, HUVECs were cultured in low serum (0.5% FBS) medium containing 20 ng/ml VEGF and 7-mer peptide (20 μM, unless otherwise specified).
as §1
(§3) The experiment was repeated three times. Magnification is × 40. b The 7-mer induces HUVEC apoptosis in the presence of VEGF. Cell apoptosis was analyzed using the Annexin V-FITC Apoptosis Detection kit according to the in situ staining protocol after treatment for 16 h. Double staining with an annexin V-FITC and the fluorescent dye Hoechst 33342 was used to visualize the apoptotic cells (green) and nuclei (blue), respectively. A representative result of four independent experiments is shown. The percentages of apoptotic cells were quantified. ^aP < 0.005 versus VEGF-treated cells

HUVECs [5] = experiment: Endothelial cell capillary-like tube formation assay; type: cell-based, human; settings: 20 ng/ml VEGF, 10 μM 7-mer, matrigel, 0.5% FBS, 6 h
Method: as §2
Growth factor-reduced matrigel was pipetted into pre-chilled 24-well plates (150 μl matrigel per well) and polymerized for 45 min at 37 °C. HUVECs (4 × 10^4 per well) in low serum (0.5% FBS) medium were treated with 20 ng/ml VEGF and 7-mer (10 μM) in matrigel coated plates. After 6 h of incubation, tubular structures were photographed. Images were captured using a Cannon camera on a Zeiss inverted microscope with magnification × 40.
as §3, with “A representative result of four independent experiments is shown.” left out

[6] = tested on: p53, Bax, p21, cleaved caspase-3; experiment: Western blot of p53, Bax, p21 and cleaved caspase-3 in RPMI8226 cells; type: cell-based, human; settings: 10 μM inhibitor pretreatment, then VEGF + 25 μM 7-mer
Excerpt: Cell lysis and SDS–PAGE were as described previously. Antibodies used in this study were for active p38 MAPK and active JNK (Promega, Madison, WI), p38 MAPK/SAPK2, JNK (Upstate Biotechnology, Lake Placid, NY), p53 (Chemicon, Temecula, CA), bax, p21, cleaved caspase-3 and β-actin (Abcam Ltd., Cambridge, UK). Proteins of interest were detected using the appropriate IgG-horseradish peroxidase-linked secondary antibody (Santa Cruz Biotechnology) and enhanced chemiluminescence reagent (Amersham, Arlington Heights, IL). X-ray films were scanned on a model GS-700 Imaging Densitometer (Bio-Rad, Hercules, CA) and analyzed with Labworks 4.0 software. For quantification, blots from at least three independent experiments were used.
Fig. 4 The 7-mer induces JNK signaling to trigger p53/bax/p21^Waf1 expression in RPMI8226 cells. a and b Cell treatments were as described in Fig. 3. Cell lysates were then prepared for western blot analysis of p53, Bax, and p21. Representative blots and densitometric analyses from three independent experiments are shown. ^*P < 0.001 versus 7-mer-treated cells

## 34-mer: PEDF amino acid positions Asp44-Asn77, N-acetylated, C-amidated (Ac-DPFFKVPVNKLAAAVSNFGYDLYRVRSSTSPTTN-NH2; UniProt P36955 44-77, looked up, fragment) [reference compound]
[1]
  neurotrophic activity: no neurotrophic activity
  anti-angiogenic and antitumor activities of human PEDF: preserve the anti-angiogenic and antitumor activities of human PEDF
RPMI8226 cells [2]; 10 ng/ml VEGF + 25 μM peptide, 24 h, serum-free, early + late apoptosis, mean ± SD, three independent experiments
  apoptotic (annexin V+) RPMI8226 cells: 25.1 ± 2.2%
RPMI8226 cells [3]
  cytotoxic effect on RPMI8226 cells in the absence of VEGF: neither peptide had a significant cytotoxic effect
RPMI8226 cells [3]; 24 h, mean ± SD
  MTT value, VEGF-induced RPMI8226 cell proliferation: 84 ± 4.0%
RPMI8226 cells [3]; 1, 5, 10 and 25 μM peptide with VEGF, MTT
  dose dependence of cell viability of VEGF-treated RPMI8226 cells: cell viability decreased significantly with the 34-mer treatment at 10 and 25 μM, but not at 1 and 5 μM
HUVECs [4]; 20 ng/ml VEGF + peptide (20 μM), four independent experiments
  apoptotic HUVECs (annexin V-FITC): 20.1 ± 4.4%
HUVECs [5]
  VEGF-stimulated tube-like network of HUVECs: marked decrease of the VEGF-stimulated tube-like network

## VEGF
RPMI8226 cells [2]; 10 ng/ml VEGF, serum-free, serum deprivation alone 14.0 ± 1.7%
  apoptotic (annexin V+) RPMI8226 cells with VEGF alone: 6.5 ± 1.1%
RPMI8226 cells [3]; 10 ng/ml VEGF without peptide, 24 h, untreated cells set as 100%, mean ± SD
  MTT value, RPMI8226 cells with VEGF alone: 120 ± 3.9%
HUVECs [4]; 20 ng/ml VEGF
  apoptotic HUVECs, VEGF-treated only: 6.3 ± 1.6%

## 18-mer: PEDF fragment Asn60-Asn77 of previous studies (NFGYDLYRVRSSTSPTTN; UniProt P36955 60-77, looked up, fragment)
[1]
  neurotrophic activity: no neurotrophic activity
  anti-angiogenic and antitumor activities of human PEDF: preserve the anti-angiogenic and antitumor activities of human PEDF

## Oc1c2ccccc2c2c3c(cccc13)N=N2 [SP600125, reference compound]
[6]
  7-mer-induced increases of p53, bax, p21 and cleaved caspase-3 after inhibitor pretreatment: significantly inhibited
RPMI8226 cells [2]; 10 μM inhibitor for 10 min, then 10 ng/ml VEGF + 25 μM 7-mer for 24 h, 7-mer alone 38.6 ± 2.1%
  7-mer-induced RPMI8226 cell apoptosis after inhibitor pretreatment: 11.6 ± 1.5%

## 23-mer: PEDF fragment A55-N77 of previous studies (AAAVSNFGYDLYRVRSSTSPTTN; UniProt P36955 55-77, looked up, fragment)
[1]
  anti-angiogenic and antitumor activities of human PEDF: devoid of PEDF activity

## 7-mer D64 alanine substitution: 7-mer with single alanine substitution of D64 (ALYRVRS; ends and bridges not checked; UniProt P36955 64-70, looked up, variant D64A)
RPMI8226 cells [3]; 24 h, mean ± SD
  MTT value, VEGF-induced RPMI8226 cell proliferation: 69 ± 3.5%

## 7-mer L65 alanine substitution: 7-mer with single alanine substitution of L65 (DAYRVRS; ends and bridges not checked; UniProt P36955 64-70, looked up, variant L65A)
RPMI8226 cells [3]; 24 h, mean ± SD
  MTT value, VEGF-induced RPMI8226 cell proliferation: 74 ± 0.9%

## D64N/L65V double mutant of the 7-mer: 7-mer with D64N/L65V double mutation (NVYRVRS; ends and bridges not checked; UniProt P36955 64-70, looked up, variant D64N L65V)
RPMI8226 cells [3]; 24 h, mean ± SD
  MTT value, VEGF-induced RPMI8226 cell proliferation: 117 ± 4.1%

B1: PEDF: a 50 kDa secreted glycoprotein (protein, UniProt P36955 20-418, looked up)
Pigment epithelium-derived …: QNPASPPEEGSPDPDSTGALVEEEDPFFKVPVNKLAAAVSNFGYDLYRVRSSTSPTTNVLLSPLSVATALSALSLGAEQRTESIIHRALYYDLISSPDIHGTYKELLDTVTAPQKNLKSASRIVFEKKLRIKSSFVAPLEKSYGTRPRVLTGNPRLDLQEINNWVQAQMKGKLARSTKEIPDEISILLLGVAHFKGQWVTKFDSRKTSLEDFYLDEERTVRVPMMSDPKAVLRYGLDSDLSCKIAQLPLTGSMSIIFFLPLKVTQNLTLIEESLTSEFIHDIDRELKTVQAVLTVPKLKLSYEGEVTKSLQEMKLQSLFDSPDFSKITGKPIKLTQVEHRAGFEWNEDGAGTTPSPGLQPAHLTFPLDYHLNQPFIFVLRDTDTGALLFIGKILDPRGP
RPMI8226 cells [3]; 24 h, mean ± SD
  MTT value, VEGF-induced RPMI8226 cell proliferation: 93 ± 3.8%
